26 compounds from ChEMBL document CHEMBL4814068, “Synthesis and structure-activity relationships of new chiral spiro-β-lactams highly active against HIV-1 and Plasmodium” (Eur J Med Chem, 2021) can be followed below.

The structures appear in SMILES notation.

A short description of series [1]: Cytotoxicity against human TZM-bl cells assessed as reduction in cell viability by AlamarBlue assay. Format: cell-based.
For series [2], the system named is Human immunodeficiency virus 1. Briefly: Antiviral activity against HIV1 SG3.1 infected in human TZM-bl cells assessed as inhibition of viral replication at 10 ug/ml measured after 48 hrs by single round viral infectivity assay based Steady-Glo luciferase assay. The conditions noted are these: Human immunodeficiency virus 1, SG3.1, TZM-bl. Format: functional.
For series [3], the system named is Human immunodeficiency virus 1. Briefly: Antiviral activity against HIV1 SG3.1 infected in human TZM-bl cells measured after 48 hrs by single round viral infectivity assay based Steady-Glo luciferase assay. Format: functional, organism-based. To be noted: Human immunodeficiency virus 1, SG3.1, TZM-bl; for IC50: 48 h; for IC90: time 48 hrs.
A further series relates to Plasmodium berghei. The experiment in a line: Antiplasmodial activity against hepatic stage of Plasmodium berghei infected in human Huh7 cells assessed as reduction in parasite growth treated 1 hr prior to infection and measured after 48 hrs by firefly luciferase based bioluminescence assay. Format: functional, organism-based. The conditions noted are these: Huh-7.
For a further series, the system named is Plasmodium falciparum. Briefly: Antiplasmodial activity against blood stage of Plasmodium falciparum NF54 assessed as inhibition of parasite growth measured after […] by SYBR green 1 dye based flow cytometry. Format: functional, organism-based. (Flow cytometry measures light scatter and fluorescence of single cells or particles in a stream.)
The subject of a further series is Huh-7. Briefly: Cytotoxicity against human Huh-7 cells assessed as reduction in cell viability by AlamarBlue assay. Format: cell-based. (In general: Alamar Blue is a resazurin reagent that responds to reducing activity.)
The test system of series [4] is Human immunodeficiency virus 2. The experiment in a line: Antiviral activity against HIV2 03PTHCC19 infected in human TZM-bl cells measured after 48 hrs by single round viral infectivity assay based Steady-Glo luciferase assay. Format: functional, organism-based. The conditions noted are these: Human immunodeficiency virus 2, 03PTHCC19, TZM-bl.

As for `CC1(C)S[C@H]2N(C(=O)C23N=NC(C(=O)OC(c2ccccc2)c2ccccc2)=C3C(=O)OC(c2ccccc2)c2ccccc2)[C@H]1C(=O)OC(c1ccccc1)c1ccccc1` (some centres undefined), in series [1], the CC50 stood at 33.5 µM. In addition, in series [2], the inhibition at 10 µg/mL worked out at 0%.
For `CCOC(=O)C1=CC2(N=N1)C(=O)N1[C@@H](C(=O)OC(c3ccccc3)c3ccccc3)C(C)(C)S[C@@H]12` (some centres undefined), in that order: 46.9 µM and 0%.
For `CC1(C)S[C@H]2N(C(=O)C23C[C@@H]2CN=N[C@]2(C(=O)OCc2ccccc2)C3C(=O)c2ccccc2)[C@H]1C(=O)OC(c1ccccc1)c1ccccc1` (some centres undefined), in that order: 41.8 µM and 0%.
For `CC1(C)S[C@H]2N(C(=O)C23C=C(C(=O)O)N=N3)[C@H]1C(=O)O` (some centres undefined), in that order: 101 µM and 0%.
Consider `CC1(C)S[C@H]2N(C(=O)C23CC=C(C(=O)OCc2ccccc2)C3C(=O)OCc2ccccc2)[C@H]1C(=O)OC(c1ccccc1)c1ccccc1` (some centres undefined), for which, in series [1], the CC50 turned out to be 43.2 µM. Also, the inhibition at 10 µg/mL in series [2] is 0%.
For `CC(C)(C)OC(=O)C1=CCC2(C(=O)N3[C@@H](C(=O)OC(c4ccccc4)c4ccccc4)C(C)(C)S[C@@H]32)C1C(=O)c1ccccc1` (some centres undefined), in that order: 44.4 µM and 0%.
On to `COC(=O)[C@@H]1N2C(=O)C3(C(C(=O)OCc4ccccc4)=CCC3C(=O)c3ccccc3)[C@H]2SC1(C)C` (some centres undefined), for which the CC50 in series [1] was determined as 55.4 µM. Further, in series [2], the inhibition at 10 µg/mL worked out at 0%.
For `CC(C)(C)OC(=O)C1=CC2(N=N1)C(=O)N1[C@@H](C(=O)O)C(C)(C)S[C@@H]12` (some centres undefined), in that order: 79 µM and 0%.
For the compound `COC(=O)C1=CCC2(C(=O)N3[C@@H](C(=O)OC(c4ccccc4)c4ccccc4)C(C)(C)S[C@@H]32)C1C(=O)c1ccccc1` (some centres undefined), the CC50 in series [1] amounted to 53.2 µM. Also, the inhibition at 10 µg/mL in series [2] turned out to be 99%. The IC50 came to 0.058 µM in series [3], 2.29 µM with Plasmodium berghei and 1.26 µM in the series on Plasmodium falciparum. The compound also registered an IC90 in series [3] of 0.233 µM. Besides, in the series on Huh-7, the Activity result is given as “Non-Toxic”.
With `COC(=O)C1=CCC(C(=O)c2ccccc2)C12C(=O)N1[C@@H](C(=O)OC(c3ccccc3)c3ccccc3)C(C)(C)S[C@@H]12` (some centres undefined), the CC50 in series [1] worked out at 54.9 µM. In addition, the inhibition at 10 µg/mL in series [2] is 0%.
Regarding `CC1(C)S[C@H]2N(C(=O)C23C=C(C(=O)Oc2ccc4ccccc4c2)N=N3)[C@H]1C(=O)OC(c1ccccc1)c1ccccc1` (some centres undefined), in series [1], the CC50 stood at 49.1 µM. The inhibition at 10 µg/mL in series [2] stood at 0%.
For `CCOC(=O)C1=CCC(C(=O)c2ccccc2)C12C(=O)N1[C@@H](C(=O)OC(c3ccccc3)c3ccccc3)C(C)(C)S[C@@H]12` (some centres undefined), in that order: 57.1 µM and 0%.
On to `CC1(C)S[C@H]2N(C(=O)C23CC=C(C(=O)OCc2ccccc2)C3C(=O)c2ccccc2)[C@H]1C(=O)OC(c1ccccc1)c1ccccc1` (some centres undefined), for which the IC50 was determined as 0.014 µM in series [3], 0.55 µM with Plasmodium berghei, 0.43 µM in the series with Plasmodium falciparum and 0.008 µM in series [4].
For `CC(C)(C)OC(=O)C1=CCC(C(=O)c2ccccc2)C12C(=O)N1[C@@H](C(=O)OC(c3ccccc3)c3ccccc3)C(C)(C)S[C@@H]12` (some centres undefined), the CC50 in series [1] was 43.2 µM. Moreover, the inhibition at 10 µg/mL in series [2] worked out at 0%.
For `CCOC(=O)C1=CC2(N=N1)C(=O)N1[C@@H](C(=O)O)C(C)(C)S[C@@H]12` (some centres undefined), in that order: 83.8 µM and 0%.
`COC(=O)C1=CC2(N=N1)C(=O)N1[C@@H](C(=O)NO)C(C)(C)S[C@@H]12` (some centres undefined): in series [1], the 50% cytotoxic concentration (CC50) came out at 76.8 µM. Further, in series [2], the inhibition at 10 µg/mL was found to be 0%.
For `CC(C)(C)OC(=O)C1=CC2(N=N1)C(=O)N1[C@@H](C(=O)OC(c3ccccc3)c3ccccc3)C(C)(C)S[C@@H]12` (some centres undefined), in that order: 55.1 µM and 0%.
For `CC1(C)S[C@H]2N(C(=O)C23C(C(=O)OCc2ccccc2)=CCC3C(=O)c2ccccc2)[C@H]1C(=O)O` (some centres undefined), in that order: 56.6 µM and 0%.
Take `CC1(C)S[C@H]2N(C(=O)C23NN=C(C(=O)OCc2ccccc2)C3C(=O)c2ccccc2)[C@H]1C(=O)OC(c1ccccc1)c1ccccc1` (some centres undefined): the CC50 in series [1] was 17.2 µM.
Consider `COC(=O)C1=CC2(N=N1)C(=O)N1[C@@H](C(=O)OC)C(C)(C)S[C@@H]12` (some centres undefined), for which the CC50 in series [1] was 89.8 µM. In series [2], the inhibition at 10 µg/mL is 0%.
As to `CC1(C)S[C@H]2N(C(=O)C23C=C(C(=O)OC(c2ccccc2)c2ccccc2)N=N3)[C@H]1C(=O)OC(c1ccccc1)c1ccccc1` (some centres undefined), the CC50 in series [1] came to 54.4 µM. Moreover, in series [2], the inhibition at 10 µg/mL came out at 0%.
As for `COC(=O)C1CC2(N=N1)C(=O)N1[C@@H](C(=O)OC(c3ccccc3)c3ccccc3)C(C)(C)S[C@@H]12` (some centres undefined), the figures for the IC50 (in series [3]; with Plasmodium berghei) were 0.012 µM and under 10 µM, respectively.
In the case of `CC1(C)S[C@H]2N(C(=O)C23C=C(C(=O)Oc2ccc4ccccc4c2)N=N3)[C@H]1C(=O)O` (some centres undefined), the CC50 in series [1] turned out to be 68.6 µM. The inhibition at 10 µg/mL in series [2] was 0%.
Turning to `CC1(C)S[C@H]2N(C(=O)C23CC=C(C(=O)OCc2ccccc2)C3C(=O)c2ccccc2)[C@H]1C(=O)O` (some centres undefined), in series [1], the CC50 is 60.3 µM. Further, in series [2], the inhibition at 10 µg/mL came to 0%.
Turning to `CC(=O)C1C(C(=O)OCc2ccccc2)=CCC12C(=O)N1[C@@H](C(=O)OC(c3ccccc3)c3ccccc3)C(C)(C)S[C@@H]12` (some centres undefined), the IC50 in series [3] was 0.65 µM; with Plasmodium berghei, under 5 µM; in series [4], 0.51 µM.
Consider `CCOC(=O)C1=CCC2(C(=O)N3[C@@H](C(=O)OC(c4ccccc4)c4ccccc4)C(C)(C)S[C@@H]32)C1C(=O)c1ccccc1` (some centres undefined), for which the CC50 in series [1] is 59 µM. Also, in series [2], the inhibition at 10 µg/mL was 99%. Further, the results for the IC50 (in series [3]; in the series with Plasmodium berghei; in the series with Plasmodium falciparum) were 0.305 µM, 1.92 µM and 0.844 µM, respectively. The compound further came in with an IC90 in series [3] of 0.479 µM. Also, in the series on Huh-7, the Activity result is “Non-Toxic”.

A word on the CC50: it is the concentration at which the toxic effect on the cells reaches its halfway point. In general, inhibition refers to the change of the read-out against control, counted positive when it falls. A word on the IC50: it is the concentration that inhibits the measured activity by half. In general, IC90 refers to the point of the concentration-response curve where the effect stands at 90%. A higher IC90 goes with weaker potency.
